Test results reported in PubChem BioAssay (NCI).
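Protocol summary: plate cells (96-well), add compound at 5 concentrations, incubate 48 h, interpolate endpoints linearly. The concentration for 50% growth inhibition is given as GI50. At the TGI there is no net growth.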

Experiments:
Test in all cases: growth of human tumour cells (NCI), 48 h
OVCAR-5 ovarian = tested on: OVCAR-5 ovarian
IGROV1 ovarian = tested on: IGROV1 ovarian
MDA-MB-468 breast = tested on: MDA-MB-468 breast
HOP-62 NSCLC = tested on: HOP-62 NSCLC
MCF7 breast = tested on: MCF7 breast
HS 578T breast = tested on: HS 578T breast
HCC-2998 colon = tested on: HCC-2998 colon
SF-268 CNS = tested on: SF-268 CNS
MDA-MB-435 = tested on: MDA-MB-435
HCT-116 colon = tested on: HCT-116 colon
SNB-19 CNS = tested on: SNB-19 CNS
UO-31 renal = tested on: UO-31 renal
NCI-H460 lung = tested on: NCI-H460 lung
CCRF-CEM leukemia = tested on: CCRF-CEM leukemia
HT29 colon = tested on: HT29 colon
HL-60(TB) leukemia = tested on: HL-60(TB) leukemia
SNB-75 CNS = tested on: SNB-75 CNS
A498 renal = tested on: A498 renal
UACC-62 melanoma = tested on: UACC-62 melanoma
BT-549 breast = tested on: BT-549 breast
SW-620 colon = tested on: SW-620 colon
SK-OV-3 ovarian = tested on: SK-OV-3 ovarian
MOLT-4 leukemia = tested on: MOLT-4 leukemia
OVCAR-4 ovarian = tested on: OVCAR-4 ovarian
SF-295 CNS = tested on: SF-295 CNS
EKVX NSCLC = tested on: EKVX NSCLC
NCI-H226 lung = tested on: NCI-H226 lung
MALME-3M melanoma = tested on: MALME-3M melanoma
SF-539 CNS = tested on: SF-539 CNS
SK-MEL-2 melanoma = tested on: SK-MEL-2 melanoma
SN12C renal = tested on: SN12C renal
COLO 205 colon = tested on: COLO 205 colon
OVCAR-8 ovarian = tested on: OVCAR-8 ovarian
A549 NSCLC = tested on: A549 NSCLC
CAKI-1 renal = tested on: CAKI-1 renal
TK-10 renal = tested on: TK-10 renal
T-47D breast = tested on: T-47D breast
HCT-15 colon = tested on: HCT-15 colon
LOX IMVI melanoma = tested on: LOX IMVI melanoma
MDA-MB-231 breast = tested on: MDA-MB-231 breast
RPMI-8226 leukemia = tested on: RPMI-8226 leukemia
M14 melanoma = tested on: M14 melanoma
HOP-92 NSCLC = tested on: HOP-92 NSCLC
K-562 leukemia = tested on: K-562 leukemia
SR leukemia = tested on: SR leukemia
PC-3 prostate = tested on: PC-3 prostate
DU-145 prostate = tested on: DU-145 prostate
NCI-H522 lung = tested on: NCI-H522 lung
RXF 393 renal = tested on: RXF 393 renal
SK-MEL-28 melanoma = tested on: SK-MEL-28 melanoma
NCI-H23 lung = tested on: NCI-H23 lung
U251 CNS = tested on: U251 CNS
OVCAR-3 ovarian = tested on: OVCAR-3 ovarian
NCI/ADR-RES ovarian = tested on: NCI/ADR-RES ovarian
KM12 colon = tested on: KM12 colon
786-0 renal = tested on: 786-0 renal
UACC-257 melanoma = tested on: UACC-257 melanoma
ACHN renal = tested on: ACHN renal
SK-MEL-5 melanoma = tested on: SK-MEL-5 melanoma

## Cc1ccc(O)cc1Nc1nc(SCCN2CCOCC2)nc2c1cnn2CC(Cl)c1ccc(Br)cc1 (stereo not drawn)
OVCAR-5 ovarian
  GI50: 3.96 µM
  TGI: 18.9 µM
IGROV1 ovarian
  GI50: 2060 nM
  TGI: 6.08 µM
MDA-MB-468 breast
  GI50: 1840 nM
  TGI: 4.69 µM
HOP-62 NSCLC
  GI50: 4.41 µM
  TGI: 30.2 µM
MCF7 breast
  GI50: 3.4 µM
  TGI: 17.3 µM
HS 578T breast
  GI50: 832 nM
  TGI: 5.67 µM
HCC-2998 colon
  GI50: 3.93 µM
  TGI: 15.2 µM
SF-268 CNS
  GI50: 7.04 µM
  TGI: > 100 µM
MDA-MB-435
  GI50: 4.72 µM
  TGI: 21.5 µM
HCT-116 colon
  GI50: 3.46 µM
  TGI: 13.3 µM
SNB-19 CNS
  GI50: 5.93 µM
  TGI: 43.4 µM
UO-31 renal
  GI50: 2250 nM
  TGI: 31.5 µM
NCI-H460 lung
  GI50: 4.26 µM
  TGI: 21.8 µM
CCRF-CEM leukemia
  GI50: 4.03 µM
  TGI: 39.1 µM
HT29 colon
  GI50: 3.36 µM
  TGI: 13.6 µM
HL-60(TB) leukemia
  GI50: 5.18 µM
  TGI: 28.4 µM
SNB-75 CNS
  GI50: 1240 nM
  TGI: 5.11 µM
A498 renal
  GI50: 6.88 µM
  TGI: 21.7 µM
UACC-62 melanoma
  GI50: 3.05 µM
  TGI: 15.5 µM
BT-549 breast
  GI50: 10.1 µM
  TGI: 23.2 µM
SW-620 colon
  GI50: 14.6 µM
  TGI: 78.1 µM
SK-OV-3 ovarian
  GI50: 13.6 µM
  TGI: 73.4 µM
MOLT-4 leukemia
  GI50: 2650 nM
  TGI: 14.5 µM
OVCAR-4 ovarian
  GI50: 6.84 µM
  TGI: > 100 µM
SF-295 CNS
  GI50: 2360 nM
  TGI: 12 µM
EKVX NSCLC
  GI50: 3.93 µM
  TGI: 60.4 µM
NCI-H226 lung
  GI50: 3.39 µM
  TGI: 20.4 µM
MALME-3M melanoma
  GI50: 3.71 µM
  TGI: 16.6 µM
SF-539 CNS
  GI50: 3.05 µM
  TGI: 13.9 µM
SK-MEL-2 melanoma
  GI50: 11.2 µM
  TGI: 24.5 µM
SN12C renal
  GI50: 2120 nM
  TGI: 13.3 µM
COLO 205 colon
  GI50: 17.6 µM
  TGI: 42.2 µM
OVCAR-8 ovarian
  GI50: 4.45 µM
  TGI: 21.2 µM
A549 NSCLC
  GI50: 3.18 µM
  TGI: 18.5 µM
CAKI-1 renal
  GI50: 3.53 µM
  TGI: 33.1 µM
TK-10 renal
  GI50: 15.8 µM
  TGI: 32.3 µM
T-47D breast
  GI50: 2140 nM
  TGI: > 100 µM
HCT-15 colon
  GI50: 2820 nM
  TGI: 15.8 µM
LOX IMVI melanoma
  GI50: 1520 nM
  TGI: 3.49 µM
MDA-MB-231 breast
  GI50: 2500 nM
  TGI: 14.3 µM
RPMI-8226 leukemia
  GI50: 4.37 µM
  TGI: 28.4 µM
M14 melanoma
  GI50: 2850 nM
  TGI: 15.2 µM
HOP-92 NSCLC
  GI50: 2060 nM
  TGI: 8.12 µM
K-562 leukemia
  GI50: 57.5 nM
  TGI: 2730 nM
SR leukemia
  GI50: 2340 nM
  TGI: 17.5 µM
PC-3 prostate
  GI50: 4.98 µM
  TGI: 46.1 µM
DU-145 prostate
  GI50: 8.92 µM
  TGI: > 100 µM
NCI-H522 lung
  GI50: 2870 nM
  TGI: 16.5 µM
RXF 393 renal
  GI50: 282 nM
  TGI: 3.71 µM
SK-MEL-28 melanoma
  GI50: 4.21 µM
  TGI: 17.4 µM
NCI-H23 lung
  GI50: 6.21 µM
  TGI: 19.5 µM
U251 CNS
  GI50: 4.85 µM
  TGI: 17.9 µM
OVCAR-3 ovarian
  GI50: 11 µM
  TGI: 64.9 µM
NCI/ADR-RES ovarian
  GI50: 3.13 µM
  TGI: 17.3 µM
KM12 colon
  GI50: 7.55 µM
  TGI: 29.8 µM
786-0 renal
  GI50: 6.22 µM
  TGI: 25.4 µM
UACC-257 melanoma
  GI50: 9.87 µM
  TGI: 24.7 µM
ACHN renal
  GI50: 2210 nM
  TGI: 15.4 µM
SK-MEL-5 melanoma
  GI50: 4.17 µM
  TGI: 15.9 µM
